Data as given in US20250195513A1, “DEGRADATION OF IRAK4 BY CONJUGATION OF IRAK4 INHIBITORS WITH E3 LIGASE LIGAND AND METHODS OF USE” (BeiGene, Ltd., priority 2022, published 2025).
Where two headings read alike, the source gives them in different places.

Target: T1, IRAK4 (Homo sapiens, UniProt Q9NWZ3)
T1 construct: endogenous in cells; host or cells: Karpas299
T1 sequence (Q9NWZ3 1-460): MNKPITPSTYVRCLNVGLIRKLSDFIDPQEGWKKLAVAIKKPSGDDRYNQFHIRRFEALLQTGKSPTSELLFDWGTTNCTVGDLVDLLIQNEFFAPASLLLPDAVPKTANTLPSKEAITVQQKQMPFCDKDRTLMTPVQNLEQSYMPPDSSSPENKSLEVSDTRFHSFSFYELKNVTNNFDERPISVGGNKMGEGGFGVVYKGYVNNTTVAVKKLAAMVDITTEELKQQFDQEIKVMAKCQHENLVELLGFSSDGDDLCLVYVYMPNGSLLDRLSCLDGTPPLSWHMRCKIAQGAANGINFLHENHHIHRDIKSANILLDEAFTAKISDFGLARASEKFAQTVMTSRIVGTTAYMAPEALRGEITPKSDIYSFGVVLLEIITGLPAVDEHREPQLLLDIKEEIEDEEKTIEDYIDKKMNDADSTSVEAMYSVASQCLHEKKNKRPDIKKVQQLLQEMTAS
Test: IRAK4 Degradation Assay (Karpas299, HTRF/TR-FRET)
Assay type: cell-based
Experimental: IRAK4 degradation was measured using a TR-FRET-based method (Degorce, François, et al. Current chemical genomics. 2009, 3: 22). Karpas299 maintained in RPMI 1640 medium (Thermo Scientific) supplemented with 20% fetal bovine serum (FBS, Thermo Scientific), 100 units/mL penicillin and 0.1 mg/mL streptomycin (Thermo Scientific) were seeded into 96-well plates at the density of 0.2 million cells per well and then treated with a series dilution of compounds. After 24 hours or 5 hours treatment, cells were pelleted via centrifugation and 40 μL lysis buffer (Cisbio) was added to each well after removal of the supernatant. Plates were then incubated at room temperature with shaking for 30 minutes. A total of 16 μL of cell lysates from each well of a 96-well plate was transferred to a 384-well white assay plate. IRAK4 level was quantitated using the HTRF kit as described by the manufacturer manual (Cisbio). FRET signals were measured using a PHERAstar FSX reader (BMG Labtech).
After treatment, add HTRF lysis buffer to each well; seal the plate and incubate 1 hour at room temperature on a plate shaker; Once the cells are lysed, 16 μL of cell lysate are transferred to a PE 384-well HTRF detection plate; 4 μL of pre-mixed HTRF antibodies are added to each well; Cover the plate with a plate sealer, spin 1000 rpm for 1 min, Incubate overnight at room temperature; Read on BMG PheraStar with HTRF protocol (337 nm-665 nm-620 nm).
The inhibition (degradation) percentage of the compound was calculated by the following equation: […]
The IC50 (DC50) value of a compound can be obtained by fitting the following equation
Wherein, X and Y are known values, and IC50, Hillslope, Top and Bottom are the parameters obtained by fitting with software. Y is the inhibition percentage (calculated from the equation), X is the concentration of the compound; IC50 is the concentration of the compound when the […] is reached. The smaller the IC50 value is, the stronger the inhibitory ability of the compound is. Vice versa, the higher the IC50 value is, the weaker the ability the inhibitory ability of the compound is; Hillslope represents the slope of the fitted curve, generally around 1 *; Bottom represents the minimum value of the curve obtained by data fitting, which is generally 0%±20%; Top represents the maximum value of the curve obtained by data fitting, which is generally 100%±20%. The experimental data were fitted by calculating and analyzing with Dotmatics data analysis software.

[1] = Karpas-299 cells, 24 h treatment, maximum percentage of degradation, read-out: IRAK4 in Karpas-299 (24 h) Dmax (%)
[2] = Karpas-299 cells, 24 h treatment, read-out: IRAK4 in Karpas-299 (24 h) DC50
[3] = Karpas-299 cells, 5 h treatment, maximum percentage of degradation, read-out: IRAK4 in Karpas-299 (5 h) Dmax (%)
[4] = Karpas-299 cells, 5 h treatment, read-out: IRAK4 in Karpas-299 (5 h) DC50

Row | Structure (SMILES) | Dmax [1] | DC50 [2] | Dmax [3] | DC50 [4] | DC50 (Degradation (Karpas-299), comparison table, Linker Type B, read-out: Compound (Linker Type B) DC50) | Dmax (Degradation (Karpas-299), comparison table, Linker Type B, read-out: Compound (Linker Type B) Dmax (%)) | DC50 (Degradation (Karpas-299), comparison table, Linker Type A, read-out: Compound (Linker Type A) DC50) | Dmax (Degradation (Karpas-299), comparison table, Linker Type A, read-out: Compound (Linker Type A) Dmax (%))
1 | O=C1CCN(c2ccc(N3CC(C(=O)N4CCN([C@H]5CC[C@H](n6cc(NC(=O)c7coc(-c8ccnc(NCC9CC9)c8)n7)c(C(F)F)n6)CC5)CC4)C3)cc2)C(=O)N1 [Example 24, 2-(2-((cyclopropylmethyl)amino)pyridin-4-yl)-N-(3-(difluoromethyl)-1-((1r,4r)-4-(4-(1-(4-(2,4-dioxotetrahydropyrimidin-1(2H)-yl)phenyl)azetidine-3-carbonyl)piperazin-1-yl)cyclohexyl)-1H-pyrazol-4-yl)oxazole-4-carboxamide] | 98% | 2.8 nM | – | – | – | – | – | –
2 | O=C1CCN(c2ccc(N3CC(C(=O)N4CCN([C@H]5CC[C@H](n6cc(NC(=O)c7coc(-c8ccnc(NCC(F)(F)F)c8)n7)c(C(F)F)n6)CC5)CC4)C3)cc2)C(=O)N1 [Example 13, N-(3-(difluoromethyl)-1-((1r,4r)-4-(4-(1-(4-(2,4-dioxotetrahydropyrimidin-1(2H)-yl)phenyl)azetidine-3-carbonyl)piperazin-1-yl)cyclohexyl)-1H-pyrazol-4-yl)-2-(2-((2,2,2-trifluoroethyl)amino)pyridin-4-yl)oxazole-4-carboxamide] | 94% | 2.7 nM | 84% | 7.5 nM | – | – | – | –
3 | CC(C)(O)c1cc2nn([C@H]3CC[C@H](N4CCN(CC(=O)N[C@@H](Cc5ccccc5)C(=O)NC5CCC(=O)NC5=O)CC4)CC3)cc2cc1NC(=O)c1ccc2cc(C#N)cnn12 (stereo partly drawn) [Example 439, 3-cyano-N-(2-((1S,4r)-4-(4-(2-(((2S)-1-((2,6-dioxopiperidin-3-yl)amino)-1-oxo-3-phenylpropan-2-yl)amino)-2-oxoethyl)piperazin-1-yl)cyclohexyl)-6-(2-hydroxypropan-2-yl)-2H-indazol-5-yl)pyrrolo[1,2-b]pyridazine-7-carboxamide] | 58% | 252 nM | – | – | – | – | – | –
4 | COc1cc2nn(C3CCN(C4CN(C(=O)[C@@H]5CCN(c6cc(F)c([C@H]7CCC(=O)NC7=O)c(F)c6)C5)C4)CC3)cc2cc1NC(=O)c1cccc(C(F)(F)F)n1 [Example 42, N-(2-(1-(1-((R)-1-(4-((R)-2,6-dioxopiperidin-3-yl)-3,5-difluorophenyl)pyrrolidine-3-carbonyl)azetidin-3-yl)piperidin-4-yl)-6-methoxy-2H-indazol-5-yl)-6-(trifluoromethyl)picolinamide] | 95% | 2.2 nM | 83% | 4.9 nM | – | – | – | –
5 | COc1cc2nn([C@H]3CC[C@H](N4CCN(C(=O)[C@@H]5CCN(c6ccc(N7CCC(=O)NC7=O)cc6)C5)CC4)CC3)cc2cc1NC(=O)c1cccc(C(F)(F)F)n1 [Example 164, N-(2-((1R,4r)-4-(4-((R)-1-(4-(2,4-dioxotetrahydropyrimidin-1(2H)-yl)phenyl)pyrrolidine-3-carbonyl)piperazin-1-yl)cyclohexyl)-6-methoxy-2H-indazol-5-yl)-6-(trifluoromethyl)picolinamide] | 97% | 2 nM | – | – | 2 nM | 97% | – | –
6 | CC(C)c1cc(-c2nc(C(=O)Nc3cn([C@H]4CC[C@H](N5CCN(C(=O)C6CN(c7cc(F)c([C@H]8CCC(=O)NC8=O)c(F)c7)C6)CC5)CC4)nc3C(F)F)co2)ccn1 [Example 86, N-(3-(difluoromethyl)-1-((1r,4r)-4-(4-(1-(4-((R)-2,6-dioxopiperidin-3-yl)-3,5-difluorophenyl)azetidine-3-carbonyl)piperazin-1-yl)cyclohexyl)-1H-pyrazol-4-yl)-2-(2-isopropylpyridin-4-yl)oxazole-4-carboxamide] | 94% | 8.9 nM | – | – | – | – | – | –
7 | O=C1CCN(c2ccc(N3CC(N4CCN(C[C@H]5CC[C@H](n6cc(NC(=O)c7coc(-c8ccnc(NCC(F)(F)F)c8)n7)c(C(F)F)n6)CC5)CC4)C3)cc2)C(=O)N1 [Example 3, N-(3-(difluoromethyl)-1-((1r,4r)-4-((4-(1-(4-(2,4-dioxotetrahydropyrimidin-1(2H)-yl)phenyl)azetidin-3-yl)piperazin-1-yl)methyl)cyclohexyl)-1H-pyrazol-4-yl)-2-(2-((2,2,2-trifluoroethyl)amino)pyridin-4-yl)oxazole-4-carboxamide] | 9% | > 10000 nM | – | – | – | – | > 10000 nM | 9%
8 | COc1cc2nn([C@H]3CC[C@H](NC(=O)C4CCN(c5ccc6c(c5)C(=O)N(C5CCC(=O)NC5=O)C6=O)CC4)CC3)cc2cc1NC(=O)c1cccc(C(F)(F)F)n1 (stereo partly drawn) [Example 32, N-(2-((1r,4r)-4-(1-(2-(2,6-dioxopiperidin-3-yl)-1,3-dioxoisoindolin-5-yl)piperidine-4-carboxamido)cyclohexyl)-6-methoxy-2H-indazol-5-yl)-6-(trifluoromethyl)picolinamide] | 95% | 2.7 nM | 91% | 15 nM | – | – | – | –
9 | CC(C)(O)c1cc2nc(C3CCN(C4CCN(C(=O)[C@@H]5CCN(c6cc(F)c([C@H]7CCC(=O)NC7=O)c(F)c6)C5)CC4)CC3)cn2cc1NC(=O)c1cccc(C(F)(F)F)n1 [Example 127, N-(2-(1′-((R)-1-(4-((R)-2,6-dioxopiperidin-3-yl)-3,5-difluorophenyl)pyrrolidine-3-carbonyl)-[1,4′-bipiperidin]-4-yl)-7-(2-hydroxypropan-2-yl)imidazo[1,2-a]pyridin-6-yl)-6-(trifluoromethyl)picolinamide] | 102% | 1.3 nM | 94% | 12 nM | – | – | – | –
10 | COc1cc2nn([C@H]3CC[C@H](CN4CCN(C(=O)[C@@H]5CCN(c6cc(F)c(N7CCC(=O)NC7=O)c(F)c6)C5)CC4)CC3)cc2cc1NC(=O)c1cccn(C2CC2)c1=O [Example 171, 1-cyclopropyl-N-(2-((1R,4r)-4-((4-((R)-1-(4-(2,4-dioxotetrahydropyrimidin-1(2H)-yl)-3,5-difluorophenyl)pyrrolidine-3-carbonyl)piperazin-1-yl)methyl)cyclohexyl)-6-methoxy-2H-indazol-5-yl)-2-oxo-1,2-dihydropyridine-3-carboxamide] | 95% | 10 nM | – | – | – | – | – | –
11 | O=C1CC[C@H](c2c(F)cc(N3CC(C(=O)N4CCN([C@H]5CC[C@H](n6cc(NC(=O)c7coc(-c8ccnc(NCC9CC9)c8)n7)c(C(F)F)n6)CC5)C(=O)C4)C3)cc2F)C(=O)N1 [Example 100, 2-(2-((cyclopropylmethyl)amino)pyridin-4-yl)-N-(3-(difluoromethyl)-1-((1r,4r)-4-(4-(1-(4-((R)-2,6-dioxopiperidin-3-yl)-3,5-difluorophenyl)azetidine-3-carbonyl)-2-oxopiperazin-1-yl)cyclohexyl)-1H-pyrazol-4-yl)oxazole-4-carboxamide] | 97% | 2.2 nM | – | – | – | – | – | –
12 | O=C1CCN(c2ccc(N3CC[C@@H](C(=O)N4CCN([C@H]5CC[C@H](n6cc(NC(=O)c7coc(-c8ccnc(NCC(F)(F)F)c8)n7)c(C(F)F)n6)CC5)CC4)C3)cc2)C(=O)N1 [Example 14, N-(3-(difluoromethyl)-1-((1R,4r)-4-(4-((R)-1-(4-(2,4-dioxotetrahydropyrimidin-1(2H)-yl)phenyl)pyrrolidine-3-carbonyl)piperazin-1-yl)cyclohexyl)-1H-pyrazol-4-yl)-2-(2-((2,2,2-trifluoroethyl)amino)pyridin-4-yl)oxazole-4-carboxamide] | 70% | 3.4 nM | – | – | – | – | – | –
